{"source": "BigSolDB 2.1", "data": [{"smiles": "C[C@@]12C[C@H]3OC(=O)[C@@H]1CO[C@]14O[C@@]5([C@H]2C1=O)[C@@]3(C)OC(=O)[C@@]5(O)CC[C@H]1[C@H]4C[C@@H](O)[C@@]2(O)CC=CC(=O)[C@]12C", "values": [{"measurement": "solubility (mole fraction)", "setting": "in acetone, 283.2 K", "result": 0.0173}, {"measurement": "solubility (mole fraction)", "setting": "in acetone, 293.2 K", "result": 0.022}, {"measurement": "solubility (mole fraction)", "setting": "in acetone, 298.2 K", "result": 0.0238}, {"measurement": "solubility (mole fraction)", "setting": "in acetone, 303.2 K", "result": 0.0265}, {"measurement": "solubility (mole fraction)", "setting": "in acetone, 308.2 K", "result": 0.0286}, {"measurement": "solubility (mole fraction)", "setting": "in acetone, 313.2 K", "result": 0.0309}, {"measurement": "solubility (mole fraction)", "setting": "in chloroform, 283.2 K", "result": 0.0046}, {"measurement": "solubility (mole fraction)", "setting": "in chloroform, 293.2 K", "result": 0.0047}, {"measurement": "solubility (mole fraction)", "setting": "in chloroform, 298.2 K", "result": 0.0049}, {"measurement": "solubility (mole fraction)", "setting": "in chloroform, 303.2 K", "result": 0.0053}, {"measurement": "solubility (mole fraction)", "setting": "in chloroform, 308.2 K", "result": 0.0058}, {"measurement": "solubility (mole fraction)", "setting": "in chloroform, 313.2 K", "result": 0.006}, {"measurement": "solubility (mole fraction)", "setting": "in ethanol, 283.2 K", "result": 0.0039}, {"measurement": "solubility (mole fraction)", "setting": "in ethanol, 293.2 K", "result": 0.0047}, {"measurement": "solubility (mole fraction)", "setting": "in ethanol, 298.2 K", "result": 0.0058}, {"measurement": "solubility (mole fraction)", "setting": "in ethanol, 303.2 K", "result": 0.0071}, {"measurement": "solubility (mole fraction)", "setting": "in ethanol, 308.2 K", "result": 0.0089}, {"measurement": "solubility (mole fraction)", "setting": "in ethanol, 313.2 K", "result": 0.0107}, {"measurement": "solubility (mole fraction)", "setting": "in ethyl acetate, 283.2 K", "result": 0.003}, {"measurement": "solubility (mole fraction)", "setting": "in ethyl acetate, 293.2 K", "result": 0.0032}, {"measurement": "solubility (mole fraction)", "setting": "in ethyl acetate, 298.2 K", "result": 0.0036}, {"measurement": "solubility (mole fraction)", "setting": "in ethyl acetate, 303.2 K", "result": 0.0042}, {"measurement": "solubility (mole fraction)", "setting": "in ethyl acetate, 308.2 K", "result": 0.0052}, {"measurement": "solubility (mole fraction)", "setting": "in ethyl acetate, 313.2 K", "result": 0.0059}, {"measurement": "solubility (mole fraction)", "setting": "in methanol, 283.2 K", "result": 0.0081}, {"measurement": "solubility (mole fraction)", "setting": "in methanol, 293.2 K", "result": 0.0092}, {"measurement": "solubility (mole fraction)", "setting": "in methanol, 298.2 K", "result": 0.0101}, {"measurement": "solubility (mole fraction)", "setting": "in methanol, 303.2 K", "result": 0.0109}, {"measurement": "solubility (mole fraction)", "setting": "in methanol, 308.2 K", "result": 0.0122}, {"measurement": "solubility (mole fraction)", "setting": "in methanol, 313.2 K", "result": 0.0159}, {"measurement": "solubility (mole fraction)", "setting": "in water, 283.2 K", "result": 0.0012}, {"measurement": "solubility (mole fraction)", "setting": "in water, 293.2 K", "result": 0.0021}, {"measurement": "solubility (mole fraction)", "setting": "in water, 298.2 K", "result": 0.0027}, {"measurement": "solubility (mole fraction)", "setting": "in water, 303.2 K", "result": 0.0028}, {"measurement": "solubility (mole fraction)", "setting": "in water, 308.2 K", "result": 0.0029}, {"measurement": "solubility (mole fraction)", "setting": "in water, 313.2 K", "result": 0.003}]}]}
